This data set is described as follows: In vitro release kinetics: cleavage rate of the reversible bond from the conjugates. The data set is classed as physicochemical. The conditions noted are these: pH 7.4, 37° C., aqueous buffer (48 mM sodium phosphate, 20% acetonitrile), disappearance of the conjugate by LCMS (UV detection), curve fitting, read-out: t1/2 (pH 7.4) (converted). On the procedure: The cleavage rate of the reversible bond from conjugates 8a-b was monitored at pH 7.4 and 37° C. in aqueous buffer (pH 7.4, 48 mM sodium phosphate, 20% acetonitrile). Disappearance of the conjugate was determined by LCMS (UV detection) and fitted with curve fitting software to obtain the half-life of the release.

Structures are written as SMILES.

`CNCCCN(C)C(=O)Oc1ccc(C(C)[N+](C)(C)CCc2ccccc2)cc1` (centres unmarked) [Compound 8a]: the half-life is 1.3 h.

`CNCCCN(C)C(=O)Oc1ccc(C(C)[n+]2cccc3ccccc32)cc1` (centres unmarked) [Compound 8b]: the half-life was 1.8 h.

These data come from patent publication US20220304993A1, “CONJUGATES OF AN ELECTRON-DONATING NITROGEN OR TERTIARY AMINE […]” (Ascendis Pharma A/S, priority 2019, published 2022).
